{"source": "patent EP4775586A1", "about": "“DEUTERATED TETRACYCLIC DERIVATIVE AND USE THEREOF” (priority 2023, dated 2025)", "note": "Where a name gives a salt, the structure may show the parent alone.", "data": [{"system": "Mycobacterium tuberculosis H37Rv", "assay": "Minimum inhibitory concentration (MIC90) against Mycobacterium tuberculosis H37Rv, Middlebrook 7H9, 96-well plate, 15 days", "type": "cell-based", "conditions": "360 h; Mycobacterium tuberculosis H37Rv, 15 days of incubation, 90% inhibition of growth, visual reading; read-out: MIC90", "units": {"MIC90": "µg/mL"}, "values": [{"compound": "[2H]C1([2H])CC(c2cccc(Cl)c2)CC([2H])([2H])N1Cc1c(O)ccc2oc3c(c12)C(=O)OCc1cc(O)ccc1-3", "note": "[YF007, 8-((4-(3-Chlorophenyl)piperidin-1-yl-2,2,6,6-d4)methyl)-3,9-dihydroxybenzo[5,6]oxepino[4,3-b]benzofuran-7(5H)-one]", "MIC90": 0.125}, {"compound": "[2H]C1([2H])CC(c2cccc(Cl)c2)CC([2H])([2H])N1C([2H])([2H])c1c(O)ccc2oc3c(c12)C(=O)OCc1cc(O)ccc1-3", "note": "[YF008, 8-((4-(3-Chlorophenyl)piperidin-1-yl-2,2,6,6-d4)methyl-d2)-3,9-dihydroxybenzo[5,6]oxepino[4,3-b]benzofuran-7(5H)-one]", "MIC90": 0.0625}, {"compound": "[2H]C1([2H])CC(C(=O)CCC)CC([2H])([2H])N1C([2H])([2H])c1c(O)ccc2oc3c(c12)C(=O)OCc1cc(O)ccc1-3", "note": "[YF012, 8-((4-Butanoylpiperidin-1-yl-2,2,6,6-d4)-methyl-d2)-3,9-dihydroxybenzo[5,6]oxepino[4,3-b]benzofuran-7(5H)-one]", "MIC90": 0.0312}, {"compound": "[2H]C([2H])(CC)C(O)C1([2H])CCN(Cc2c(O)ccc3oc4c(c23)C(=O)OCc2cc(O)ccc2-4)CC1", "note": "(stereo not shown) [YF017, 3,9-Dihydroxy-8-((4-(1-hydroxybutyl-2,2-d2)piperidin-1-yl-4-d)methyl)benzo[5,6]oxepino[4,3-b]benzofuran-7(5H)-one]", "MIC90": 0.0156}, {"compound": "[2H]C([2H])(c1c(O)ccc2oc3c(c12)C(=O)OCc1cc(O)ccc1-3)N1CCC(C(O)CCC)CC1", "note": "(stereo not shown) [YF015, 3,9-Dihydroxy-8-((4-(1-hydroxybutyl)piperidin-1-yl)methyl-d2)benzo[5,6]oxepino[4,3-b]benzofuran-7(5H)-one]", "MIC90": 0.0156}, {"compound": "[2H]c1c(O)c(C([2H])([2H])N2C([2H])([2H])CC(C(=O)CCC)CC2([2H])[2H])c2c3c(oc2c1[2H])-c1ccc(O)cc1C([2H])([2H])OC3=O", "note": "[YF013, 8-((4-Butanoylpiperidin-1-yl-2,2,6,6-d4)-methyl-d2)-3,9-dihydroxybenzo[5,6]oxepino[4,3-b]benzofuran-7(5H)-one-5,5,10,11-d4]", "MIC90": 0.0625}, {"compound": "[2H]C(O)(CCC)C1CCN(C([2H])([2H])c2c(O)ccc3oc4c(c23)C(=O)OCc2cc(O)ccc2-4)CC1", "note": "(stereo not shown) [YF016, 3,9-Dihydroxy-8-((4-(1-hydroxybutyl-1-d)piperidin-1-yl)methyl-d2)benzo[5,6]oxepino[4,3-b]benzofuran-7(5H)-one]", "MIC90": 0.0156}, {"compound": "[2H]C([2H])(c1c(O)ccc2oc3c(c12)C(=O)OCc1cc(O)ccc1-3)N1CCC(c2cccc(Cl)c2)CC1", "note": "[YF006, 8-((4-(3-Chlorophenyl)piperidin-1-yl)methyl-d2)-3,9-dihydroxybenzo[5,6]oxepino[4,3-b]benzofuran-7(5H)-one]", "MIC90": 0.125}, {"compound": "[2H]c1c(O)c(C([2H])([2H])N2C([2H])([2H])CC(c3cccc(Cl)c3)CC2([2H])[2H])c2c3c(oc2c1[2H])-c1ccc(O)cc1C([2H])([2H])OC3=O", "note": "[YF009, 8-((4-(3-Chlorophenyl)piperidin-1-yl-2,2,6,6-d4)methyl-d2)-3,9-dihydroxybenzo[5,6]oxepino[4,3-b]benzofuran-7(5H)-one-5,5,10,11-d4]", "MIC90": 0.125}, {"compound": "[2H]C([2H])(CC)C(=O)C1([2H])CCN(Cc2c(O)ccc3oc4c(c23)C(=O)OCc2cc(O)ccc2-4)CC1", "note": "[YF011, 8-((4-(Butanoyl-2,2-d2)piperidin-1-yl-4-d)methyl)-3,9-dihydroxybenzo[5,6]oxepino[4,3-b]benzofuran-7(5H)-one]", "MIC90": 0.0625}]}, {"system": "Mycobacterium tuberculosis H37Rv", "assay": "Minimum inhibitory concentration (MIC90) against Mycobacterium tuberculosis H37Rv, Middlebrook 7H9, 96-well plate, 15 days", "type": "cell-based", "conditions": "H37RV, 360 h", "units": {"MIC90": "µg/mL"}, "values": [{"compound": "[2H]c1c(O)c(C([2H])([2H])N2C([2H])([2H])CC(C([2H])(O)CCC)CC2([2H])[2H])c2c3c(oc2c1[2H])-c1ccc(O)cc1C([2H])([2H])OC3=O", "note": "(stereo not shown) [YF022, 3,9-Dihydroxy-8-((4-(1-hydroxybutyl-1-d)piperidin-2,2,6,6-d4-1-yl)methyl-d2)benzo[5,6]oxepino[4,3-b]benzofuran-7(5H)-one-5,5,10,11-d4]", "MIC90": 0.0156}, {"compound": "[2H]c1c(O)c(C([2H])([2H])N2C([2H])([2H])CC(C(O)CCC)CC2([2H])[2H])c2c3c(oc2c1[2H])-c1ccc(O)cc1C([2H])([2H])OC3=O", "note": "(stereo not shown) [YF021, 3,9-Dihydroxy-8-((4-(1-hydroxybutyl)piperidin-2,2,6,6-d4-1-yl)methyl-d2)benzo[5,6]oxepino[4,3-b]benzofuran-7(5H)-one-5,5,10,11-d4]", "MIC90": 0.0156}, {"compound": "[2H]c1c(O)c(C([2H])([2H])N2CCC([2H])(C(O)C([2H])([2H])CC)CC2)c2c3c(oc2c1[2H])-c1ccc(O)cc1C([2H])([2H])OC3=O", "note": "(stereo not shown) [YF023, 3,9-Dihydroxy-8-((4-(1-hydroxybutyl-2,2-d2)piperidin-1-yl-1-d)methyl-d2)benzo[5,6]oxepino[4,3-b]benzofuran-7(5H)-one-5,5,10,11-d4]", "MIC90": 0.0156}, {"compound": "[2H]c1c(O)c(C([2H])([2H])N2CCC([2H])(C([2H])(O)C([2H])([2H])CC)CC2)c2c3c(oc2c1[2H])-c1ccc(O)cc1C([2H])([2H])OC3=O", "note": "(stereo not shown) [YF024, 3,9-Dihydroxy-8-((4-(1-hydroxybutyl-1,2,2-d3)piperidin-1-yl-1-d)methyl-d2)benzo[5,6]oxepino[4,3-b]benzofuran-7(5H)-one-5,5,10,11-d4]", "MIC90": 0.0156}]}, {"system": "Mycobacterium tuberculosis H37Rv", "assay": "Minimum inhibitory concentration (MIC90) against Mycobacterium tuberculosis H37Rv, Middlebrook 7H9, 96-well plate, 15 days", "type": "cell-based", "conditions": "Mycobacterium tuberculosis H37Rv, 15 days of incubation, 90% inhibition of growth, visual reading", "units": {"MIC90": "µg/mL"}, "values": [{"compound": "8-((4-(Butanoyl-2,2-d2)piperidin-1-yl-4-d)methyl-d2)-3,9-dihydroxybenzo[5,6]oxepino[4,3-b]benzofuran-7(5H)-one-5,5, 10,11-d4 [YF014]", "MIC90": 0.0625}, {"compound": "[2H]C1([2H])CC(C(O)CCC)CC([2H])([2H])N1C([2H])([2H])c1c(O)ccc2oc3c(c12)C(=O)OCc1cc(O)ccc1-3", "note": "(stereo not shown) [YF019, 3,9-Dihydroxy-8-((4-(1-hydroxybutyl)piperidin-2,2,6,6-d4-1-yl)methyl)benzo[5,6]oxepino[4,3-b]benzofuran-7(5H)-one]", "MIC90": 0.0078}, {"compound": "8-((4-(Butanoyl-2,2-d2)piperidin-1-yl-4-d)methyl-d2)-3,9-dihydroxybenzo[5,6]oxepino[4,3-b]benzofuran-7(5H)-one-5,5,10,11-d4 hydrochloride [YF038]", "MIC90": 0.0625}, {"compound": "3,9-Dihydroxy-8-((4-(1-hydroxybutyl-1-d)piperidin-1-yl)methyl-d2)benzo[5,6]oxepino[4,3-b]benzofuran-7(5H)-one hydrochloride [YF040]", "MIC90": 0.0156}]}, {"system": "Mycobacterium tuberculosis H37Rv", "assay": "Minimum inhibitory concentration (MIC90) against Mycobacterium tuberculosis H37Rv, Middlebrook 7H9, 96-well plate, 15 days", "type": "cell-based", "conditions": "Mycobacterium tuberculosis, H37RV, 360 h, Mycobacterium tuberculosis H37Rv, 15 days of incubation, 90% inhibition of growth, visual reading", "units": {"MIC90": "µg/mL"}, "values": [{"compound": "[2H]c1c(O)c(C([2H])([2H])N2CCC([2H])(C(O)C([2H])([2H])CC)CC2)c2c3c(oc2c1[2H])-c1ccc(O)cc1C([2H])([2H])OC3=O", "note": "(stereo not shown) [YF047, 3,9-Dihydroxy-8-((4-(1-hydroxybutyl-2,2-d2)piperidin-1-yl-1-d)methyl-d2)benzo[5,6]oxepino[4,3-b]benzofuran-7(5H)-one-5,5,10,11-d4 hydrochloride]", "MIC90": 0.0156}, {"compound": "[2H]C([2H])(c1c(O)ccc2oc3c(c12)C(=O)OCc1cc(O)ccc1-3)N1CCC(C(=O)CCC)CC1", "note": "[YF010, 8-((4-Butanoyl)piperidin-1-ylmethyl-d2)-3,9-dihydroxybenzo[5,6]oxepino[4,3-b]benzofuran-7(5H)-one]", "MIC90": 0.0625}, {"compound": "[2H]c1c(O)c(C([2H])([2H])N2CCC([2H])(C([2H])(O)C([2H])([2H])CC)CC2)c2c3c(oc2c1[2H])-c1ccc(O)cc1C([2H])([2H])OC3=O", "note": "(stereo not shown) [YF048, 3,9-Dihydroxy-8-((4-(1-hydroxybutyl-1,2,2-d3)piperidin-1-yl-1-d)methyl-d2)benzo[5,6]oxepino[4,3-b]benzofuran-7(5H)-one-5,5,10,11-d4 hydrochloride]", "MIC90": 0.0156}, {"compound": "[2H]c1c(O)c(C([2H])([2H])N2C([2H])([2H])CC(C(O)CCC)CC2([2H])[2H])c2c3c(oc2c1[2H])-c1ccc(O)cc1C([2H])([2H])OC3=O", "note": "(stereo not shown) [YF045, 3,9-Dihydroxy-8-((4-(1-hydroxybutyl)piperidin-2,2,6,6-d4-1-yl)methyl-d2)benzo[5,6]oxepino[4,3-b]benzofuran-7(5H)-one-5,5,10,11-d4 hydrochloride]", "MIC90": 0.0156}, {"compound": "[2H]C1([2H])N(Cc2c(O)cc(C(C)(C)C)c3oc4c5ccc(O)cc5oc(=O)c4c23)C([2H])([2H])C([2H])([2H])C([2H])([2H])C1([2H])[2H]", "note": "[YF004, 10-(tert-Butyl)-3,8-dihydroxy-7-((piperidin-1-yl-d10)methyl)-6H-benzofuran[3,2-c]chromen-6-one]", "MIC90": "≤ 0.0039"}, {"compound": "[2H]C1([2H])CCCC([2H])([2H])N1Cc1c(O)cc(C(C)(C)C)c2oc3c4ccc(O)cc4oc(=O)c3c12", "note": "[YF002, 10-(tert-Butyl)-3,8-dihydroxy-7-((piperidin-1-yl-2,2,6,6-d4)methyl)-6H-benzofuran[3,2-c]chromen-6-one]", "MIC90": "≤ 0.0039"}, {"compound": "[2H]C1([2H])CC(C(O)CCC)CC([2H])([2H])N1C([2H])([2H])c1c(O)ccc2oc3c(c12)C(=O)OCc1cc(O)ccc1-3", "note": "(stereo not shown) [YF043, 3,9-Dihydroxy-8-((4-(1-hydroxybutyl)piperidin-2,2,6,6-d4-1-yl)methyl)benzo[5,6]oxepino[4,3-b]benzofuran-7(5H)-one hydrochloride]", "MIC90": 0.0156}, {"compound": "[2H]C([2H])(c1c(O)cc(C(C)(C)C)c2oc3c4ccc(O)cc4oc(=O)c3c12)N1CCCCC1", "note": "[YF001, 10-(tert-Butyl)-3,8-dihydroxy-7-(piperidin-1-ylmethyl-d2)-6H-benzofuran[3,2-c]chromen-6-one]", "MIC90": "≤ 0.0039"}, {"compound": "[2H]c1c(O)c(C([2H])([2H])N2C([2H])([2H])CC(C([2H])(O)CCC)CC2([2H])[2H])c2c3c(oc2c1[2H])-c1ccc(O)cc1C([2H])([2H])OC3=O", "note": "(stereo not shown) [YF046, 3,9-Dihydroxy-8-((4-(1-hydroxybutyl-1-d)piperidin-2,2,6,6-d4-1-yl)methyl-d2)benzo[5,6]oxepino[4,3-b]benzofuran-7(5H)-one-5,5,10,11-d4 hydrochloride]", "MIC90": 0.0156}, {"compound": "[2H]C(O)(CCC)C1CC([2H])([2H])N(C([2H])([2H])c2c(O)ccc3oc4c(c23)C(=O)OCc2cc(O)ccc2-4)C([2H])([2H])C1", "note": "(stereo not shown) [YF020, 3,9-Dihydroxy-8-((4-(1-hydroxybutyl-1-d)piperidin-2,2,6,6-d4-1-yl)methyl)benzo[5,6]oxepino[4,3-b]benzofuran-7(5H)-one]", "MIC90": 0.0156}]}]}
